Test results from patent publication US20230085307A1, “PYRIDAZINONE COMPOUND AND HERBICIDE” (NISSAN CHEMICAL CORPORATION, priority 2019, published 2023).

Assays:
Japanese bulrush = assay: Test Example 1: herbicidal activity, application before weed generation under submerged conditions (Table 16, symbol B); format: in vivo, Japanese bulrush (Schoenoplectus juncoides)
Procedure, shortened: (§1)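 Alluvial soil was flooded to 4 cm depth, weed seeds were sown mixed and 2.5-leaf rice seedlings were transplanted. On sowing day, the compound's emulsion, diluted in water to a set dose, was applied to the water surface. Plants grew at 25–30 °C and were scored 0–5 after three weeks.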

oval-leafed pondweed [1] = assay: Test Example 1: herbicidal activity, application before weed generation under submerged conditions (Table 16, symbol C); format: in vivo, oval-leafed pondweed (Monochoria vaginalis)
Procedure, shortened: as §1

southern crabgrass [2] = assay: Test Example 4: herbicidal effect by soil treatment (Table 19, symbol F); format: in vivo, southern crabgrass (Digitaria ciliaris)
Procedure, shortened: (§2)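 Three weeks of greenhouse growth at 25° C. to 30° C. followed a uniform surface spray of water-diluted emulsion at a predetermined herbicide amount. Seeds had been sown beforehand under about 1.5 cm of sterilized diluvial soil. Grading followed criteria set out in an earlier test.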

windgrass [3] = assay: Test Example 4: herbicidal effect by soil treatment (Table 19, symbol L); format: in vivo, windgrass (Apera spica-venti)
Procedure, shortened: as §2

oval-leafed pondweed [4] = assay: Test Example 2: herbicidal activity, application during weed generation under submerged conditions (Table 17, symbol C); format: in vivo, oval-leafed pondweed (Monochoria vaginalis); conditions: application during weed generation, submerged conditions
Procedure, shortened: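 Steps: fill Wagner pots with alluvial soil; add water to give 4 cm depth; sow the species mixed; grow under glass at 25–30° C.; at 1–2 leaves apply water-diluted emulsion formulation to the water surface at a fixed herbicide amount; score after 3 weeks.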

Chinese sprangletop = assay: Test Example 3: herbicidal effect by foliage application, Wagner pot (Table 18, symbol D); format: in vivo, chinese sprangletop (Leptochloa chinensis)
Procedure, shortened: (§3)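 Plants were sown in alluvial soil held under 0.1–0.5 cm standing water and grown 14 days in a greenhouse at 25–30 °C. An emulsifiable formulation, water-diluted to the set dose, was then sprayed onto the foliage, and effects were scored three weeks later using previously defined criteria.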

late watergrass = assay: Test Example 1: herbicidal activity, application before weed generation under submerged conditions (Table 16, symbol A); format: in vivo, late watergrass (Echinochloa oryzicola)
Procedure, shortened: as §1

green foxtail = assay: Test Example 5: herbicidal effect by foliage application, plastic box (Table 20, symbol G); format: in vivo, green foxtail (Setaria viridis); conditions: foliage application, three weeks after application
Procedure, shortened: (§4)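 Plants sown in sterilized diluvial soil and grown 14 days in a greenhouse at 25° C to 30° C, then sprayed on the foliage with the compound's emulsion diluted in water to a predetermined herbicide amount. Injury to weeds and crops scored three weeks after application on a visual rating scale.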

persian speedwell = assay: Test Example 4: herbicidal effect by soil treatment (Table 19, symbol R); format: in vivo, Persian speedwell (Veronica persica)
Procedure, shortened: as §2

false cleavers = assay: Test Example 4: herbicidal effect by soil treatment (Table 19, symbol Q); format: in vivo, false cleavers (Galium spurium)
Procedure, shortened: as §2

redroot pigweed = assay: Test Example 4: herbicidal effect by soil treatment (Table 19, symbol N); format: in vivo, redroot pigweed (Amaranthus retroflexus)
Procedure, shortened: as §2

wild oat = assay: Test Example 5: herbicidal effect by foliage application, plastic box (Table 20, symbol I); format: in vivo, wild oat (Avena fatua); conditions: foliage application, three weeks after application
Procedure, shortened: as §4

southern crabgrass [5] = assay: Test Example 5: herbicidal effect by foliage application, plastic box (Table 20, symbol F); format: in vivo, southern crabgrass (Digitaria ciliaris); conditions: foliage application, three weeks after application
Procedure, shortened: as §4

rice flat sedge = assay: Test Example 3: herbicidal effect by foliage application, Wagner pot (Table 18, symbol E); format: in vivo, rice flat sedge (Cyperus iria)
Procedure, shortened: as §3

lambsquarters = assay: Test Example 5: herbicidal effect by foliage application, plastic box (Table 20, symbol O); format: in vivo, lambsquarters (Chenopodium album); conditions: foliage application, three weeks after application
Procedure, shortened: as §4

windgrass [6] = assay: Test Example 5: herbicidal effect by foliage application, plastic box (Table 20, symbol L); format: in vivo, windgrass (Apera spica-venti); conditions: foliage application, three weeks after application
Procedure, shortened: as §4

barnyard grass = assay: Test Example 5: herbicidal effect by foliage application, plastic box (Table 20, symbol H); format: in vivo, barnyard grass (Echinochloa crus-galli); conditions: foliage application, three weeks after application
Procedure, shortened: as §4

[7] = amount of applied herbicide 224 g/ha
[8] = amount of applied herbicide 304 g/ha
[9] = amount of applied herbicide 320 g/ha

| SMILES | Herbicidal effect, B: Japanese bulrush (Japanese bulrush; [9]) | Herbicidal effect, C: oval-leafed pondweed (oval-leafed pondweed [1]; [9]) | F: southern crabgrass, herbicidal effect grade (southern crabgrass [2]; [9]) | L: windgrass, herbicidal effect grade (windgrass [3]; [9]) | herbicidal effect rating, C: oval-leafed pondweed (oval-leafed pondweed [4]; AAH 320 g/ha) | herbicidal effect on Chinese sprangletop (D) (Chinese sprangletop; 320 g/ha) | Herbicidal effect, A: late watergrass (late watergrass; [9]) | G: green foxtail, herbicidal effect grade (green foxtail; 320 g/ha) | R: persian speedwell, herbicidal effect grade (persian speedwell; [9]) | Q: false cleavers, herbicidal effect grade (false cleavers; [9]) | N: redroot pigweed, herbicidal effect grade (redroot pigweed; [9]) | I: wild oat, herbicidal effect grade (wild oat; 320 g/ha) | F: southern crabgrass, herbicidal effect grade (southern crabgrass [5]; 320 g/ha) | herbicidal effect on rice flat sedge (E) (rice flat sedge; 320 g/ha) | O: lambsquarters, herbicidal effect grade (lambsquarters; 320 g/ha) | L: windgrass, herbicidal effect grade (windgrass [6]; 320 g/ha) | H: barnyard grass, herbicidal effect grade (barnyard grass; 320 g/ha) | also measured |
| --- | --- | --- | --- | --- | --- | --- | --- | --- | --- | --- | --- | --- | --- | --- | --- | --- | --- | --- |
| CCCC(=O)Oc1c(C)nn(C)c(=O)c1-c1c(-c2ccccc2OC)sc2cc(C)ccc12 [3-050] | – | – | – | – | – | – | – | – | – | – | – | – | – | – | – | – | – | Herbicidal effect, B: Japanese bulrush (Japanese bulrush; [7]): 0 (Herbicidal rate of 5% or less (almost no effect)); Herbicidal effect, C: oval-leafed pondweed (oval-leafed pondweed [1]; [7]): 1 (Herbicidal rate of 5% or more and less than 20%); F: southern crabgrass, herbicidal effect grade (southern crabgrass [2]; [7]): 0 (Herbicidal rate of 5% or less (almost no effect)); L: windgrass, herbicidal effect grade (windgrass [3]; [7]): 2 (Herbicidal rate of 20% or more and less than 40%); herbicidal effect rating, C: oval-leafed pondweed (oval-leafed pondweed [4]; AAH 224 g/ha): 3 (Herbicidal rate of 40% or more and less than 70%); herbicidal effect on Chinese sprangletop (D) (Chinese sprangletop; 224 g/ha): 3 (Herbicidal rate of 40% or more and less than 70%); Herbicidal effect, A: late watergrass (late watergrass; [7]): 2 (Herbicidal rate of 20% or more and less than 40%); G: green foxtail, herbicidal effect grade (green foxtail; 224 g/ha): 3 (Herbicidal rate of 40% or more and less than 70%); R: persian speedwell, herbicidal effect grade (persian speedwell; [7]): 1 (Herbicidal rate of 5% or more and less than 20%); Q: false cleavers, herbicidal effect grade (false cleavers; [7]): 0 (Herbicidal rate of 5% or less (almost no effect)); N: redroot pigweed, herbicidal effect grade (redroot pigweed; [7]): 0 (Herbicidal rate of 5% or less (almost no effect)); I: wild oat, herbicidal effect grade (wild oat; 224 g/ha): 4 (Herbicidal rate of 70% or more and less than 90%); F: southern crabgrass, herbicidal effect grade (southern crabgrass [5]; 224 g/ha): 4 (Herbicidal rate of 70% or more and less than 90%); herbicidal effect on rice flat sedge (E) (rice flat sedge; 224 g/ha): 3 (Herbicidal rate of 40% or more and less than 70%); O: lambsquarters, herbicidal effect grade (lambsquarters; 224 g/ha): 0 (Herbicidal rate of 5% or less (almost no effect)); L: windgrass, herbicidal effect grade (windgrass [6]; 224 g/ha): 4 (Herbicidal rate of 70% or more and less than 90%); H: barnyard grass, herbicidal effect grade (barnyard grass; 224 g/ha): 4 (Herbicidal rate of 70% or more and less than 90%) |
| CCCC(=O)Oc1c(C)nn(C)c(=O)c1-c1c(-c2ccccc2OCC)sc2cc(C)ccc12 [3-054] | – | – | – | – | – | – | – | – | – | – | – | – | – | – | – | – | – | Herbicidal effect, B: Japanese bulrush (Japanese bulrush; [8]): 5 (Herbicidal rate of 90% or more (almost completely withered)); Herbicidal effect, C: oval-leafed pondweed (oval-leafed pondweed [1]; [8]): 4 (Herbicidal rate of 70% or more and less than 90%); F: southern crabgrass, herbicidal effect grade (southern crabgrass [2]; [8]): 4 (Herbicidal rate of 70% or more and less than 90%); L: windgrass, herbicidal effect grade (windgrass [3]; [8]): 3 (Herbicidal rate of 40% or more and less than 70%); herbicidal effect rating, C: oval-leafed pondweed (oval-leafed pondweed [4]; AAH 304 g/ha): 3 (Herbicidal rate of 40% or more and less than 70%); herbicidal effect on Chinese sprangletop (D) (Chinese sprangletop; 304 g/ha): 3 (Herbicidal rate of 40% or more and less than 70%); Herbicidal effect, A: late watergrass (late watergrass; [8]): 5 (Herbicidal rate of 90% or more (almost completely withered)); G: green foxtail, herbicidal effect grade (green foxtail; 304 g/ha): 5 (Herbicidal rate of 90% or more (almost completely withered)); R: persian speedwell, herbicidal effect grade (persian speedwell; [8]): 3 (Herbicidal rate of 40% or more and less than 70%); Q: false cleavers, herbicidal effect grade (false cleavers; [8]): 2 (Herbicidal rate of 20% or more and less than 40%); N: redroot pigweed, herbicidal effect grade (redroot pigweed; [8]): 1 (Herbicidal rate of 5% or more and less than 20%); I: wild oat, herbicidal effect grade (wild oat; 304 g/ha): 5 (Herbicidal rate of 90% or more (almost completely withered)); F: southern crabgrass, herbicidal effect grade (southern crabgrass [5]; 304 g/ha): 5 (Herbicidal rate of 90% or more (almost completely withered)); herbicidal effect on rice flat sedge (E) (rice flat sedge; 304 g/ha): 5 (Herbicidal rate of 90% or more (almost completely withered)); O: lambsquarters, herbicidal effect grade (lambsquarters; 304 g/ha): 4 (Herbicidal rate of 70% or more and less than 90%); L: windgrass, herbicidal effect grade (windgrass [6]; 304 g/ha): 4 (Herbicidal rate of 70% or more and less than 90%); H: barnyard grass, herbicidal effect grade (barnyard grass; 304 g/ha): 4 (Herbicidal rate of 70% or more and less than 90%) |
| COc1cc(F)ccc1-c1sc2cc(C)ccc2c1-c1c(O)c(C)nn(C)c1=O [3-055] | 4 (Herbicidal rate of 70% or more and less than 90%) | 3 (Herbicidal rate of 40% or more and less than 70%) | 3 (Herbicidal rate of 40% or more and less than 70%) | 2 (Herbicidal rate of 20% or more and less than 40%) | 3 (Herbicidal rate of 40% or more and less than 70%) | 4 (Herbicidal rate of 70% or more and less than 90%) | 4 (Herbicidal rate of 70% or more and less than 90%) | 5 (Herbicidal rate of 90% or more (almost completely withered)) | 4 (Herbicidal rate of 70% or more and less than 90%) | 3 (Herbicidal rate of 40% or more and less than 70%) | 0 (Herbicidal rate of 5% or less (almost no effect)) | 5 (Herbicidal rate of 90% or more (almost completely withered)) | 5 (Herbicidal rate of 90% or more (almost completely withered)) | 5 (Herbicidal rate of 90% or more (almost completely withered)) | 5 (Herbicidal rate of 90% or more (almost completely withered)) | 5 (Herbicidal rate of 90% or more (almost completely withered)) | 4 (Herbicidal rate of 70% or more and less than 90%) | – |
| CCCC(=O)Oc1c(C)nn(C)c(=O)c1-c1c(-c2ccccc2OCC)sc2cc(OC)ccc12 [3-071] | 5 (Herbicidal rate of 90% or more (almost completely withered)) | 5 (Herbicidal rate of 90% or more (almost completely withered)) | 4 (Herbicidal rate of 70% or more and less than 90%) | 4 (Herbicidal rate of 70% or more and less than 90%) | 5 (Herbicidal rate of 90% or more (almost completely withered)) | 5 (Herbicidal rate of 90% or more (almost completely withered)) | 5 (Herbicidal rate of 90% or more (almost completely withered)) | 5 (Herbicidal rate of 90% or more (almost completely withered)) | 5 (Herbicidal rate of 90% or more (almost completely withered)) | 5 (Herbicidal rate of 90% or more (almost completely withered)) | 4 (Herbicidal rate of 70% or more and less than 90%) | 5 (Herbicidal rate of 90% or more (almost completely withered)) | 5 (Herbicidal rate of 90% or more (almost completely withered)) | 5 (Herbicidal rate of 90% or more (almost completely withered)) | 5 (Herbicidal rate of 90% or more (almost completely withered)) | 5 (Herbicidal rate of 90% or more (almost completely withered)) | 5 (Herbicidal rate of 90% or more (almost completely withered)) | – |
